Data as given in PMC7311426, “An amphipathic peptide with antibiotic activity against multidrug-resistant Gram-negative bacteria” (Nature Communications, 2020).
Where two headings read alike, the source gives them in different places. Marks after values point to notes of the source that are not given here.

How the values were obtained:
[1] = tested on: K. pneumoniae; assay: microbe, parasite or virus in culture; details: mode of 6 replicates
How it was run: (§1)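 Broth microdilution in MHB, 2-fold 12-point series from 128 or 64 down to 0.06 or 0.03 μg mL^−1, 5 × 10^5 CFU mL^−1. Extra runs in CAMHB per CLSI and in MHB with 1% agarose; n ≥ 6.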

[2] = tested on: P. aeruginosa; assay: microbe, parasite or virus in culture; details: mode of 6 replicates
How it was run: as §1

[3] = tested on: S. enterica Typhi; assay: microbe, parasite or virus in culture; details: S. enterica Typhi ATCC 14028 control strain, CDC 6516-60; CAMHB; mode of 6 replicates
How it was run: as §1

[4] = tested on: E. coli; assay: microbe, parasite or virus in culture
How it was run: as §1

[5] = tested on: S. aureus; assay: microbe, parasite or virus in culture; details: S. aureus ATCC 25923 MSSA; MHB; mode of 6 replicates
How it was run: as §1

[6] = tested on: A. baumannii; assay: microbe, parasite or virus in culture; details: mode of 6 replicates
How it was run: as §1

[7] = tested on: A. baumannii clinical isolates; assay: microbe, parasite or virus in culture
How it was run: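 MIC90 from CLSI broth microdilution (M07-A9) in two clinical-isolate panels. US panel (331 isolates, 2010-2012): AA139 diluted in 0.01% acetic acid/0.1% BSA. Worldwide panel (445 isolates, 2011-2013, four regions): CAMHB, with 0.002% Tween 80 added for AA139 and polymyxin B.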

[8] = tested on: E. coli; parameters: method as in Hasman H, et al. Euro. Surveill. (2015) 20:49; details: E. coli ESBL20150072, mcr-1 pos; ESBL; CAMHB; comparator antibiotics; ref Hasman H, et al. Euro. Surveill. (2015) 20:49; cited from earlier work

Substance: colistin
- BMD MIC ([1]; K. pneumoniae ATCC 13883 type strain (polymyxin/colistin heteroresistant), MHB): 0.03-4# μg mL-1
- BMD MIC ([1]; K. pneumoniae ATCC 700603 (K6), MDR, OXA-2/SHV-18, CAMHB): 0.125 µg/mL
- BMD MIC ([1]; K. pneumoniae ATCC 700603 (K6), MDR, OXA-2/SHV-18, MHB): 0.03 µg/mL
- BMD MIC ([1]; K. pneumoniae BAA-2146, MDR, ESBL, NDM-1 pos, MHB): 0.06 µg/mL
- BMD MIC ([1]; K. pneumoniae Greece CI 8_GR_13, XDR, KPC-2, PmxR, MHB): >64 µg/mL
- BMD MIC ([2]; P. aeruginosa ATCC 27853 control strain, CAMHB): 0.125 µg/mL
- BMD MIC ([2]; P. aeruginosa ATCC 27853 control strain, MHB): 0.125 µg/mL
- BMD MIC ([2]; P. aeruginosa FADDI-070, MDR, PmxR, MHB/CAMHB): 64 µg/mL
- BMD MIC [3]: 0.03 µg/mL
- BMD MIC ([4]; E. coli ATCC 25922 FDA control strain, CAMHB, mode of 6 replicates): 0.06 to 0.125 µg/mL
- BMD MIC ([4]; E. coli ATCC 25922 FDA control strain, MHB, mode of 6 independent biological replicates): 0.25 µg/mL
- BMD MIC ([4]; E. coli ATCC 700926 K12 (MG1655), CAMHB, mode of 6 replicates): ≤0.03 µg/mL
- BMD MIC ([4]; E. coli ATCC 700928 CFT073 UPEC, CAMHB, mode of 6 replicates): ≤0.25 µg/mL
- BMD MIC ([4]; E. coli CI 12-6-83 Hong Kong, mcr-1 pos, ESBL, CAMHB, mode of 6 replicates): 4 µg/mL
- BMD MIC [5]: >128 µg/mL
- BMD MIC ([6]; A. baumannii ATCC 19636 type strain, CAMHB): 0.06 µg/mL
- BMD MIC ([6]; A. baumannii ATCC 19636 type strain, MHB): 0.06 µg/mL
- BMD MIC ([6]; A. baumannii Greece CI, XDR, PmxR, MHB): >32 µg/mL
- MIC ([7]; US isolates 2010-2012, isolate CID 1919446, Rep 1): 2 µg/mL
- MIC ([7]; US isolates 2010-2012, isolate CID 1919446, Rep 2): 1 µg/mL
- MIC ([7]; US isolates 2010-2012, isolate CID 1919519, Rep 1): 1 µg/mL
- MIC ([7]; US isolates 2010-2012, isolate CID 1919519, Rep 2): 0.5 µg/mL
- MIC ([7]; US isolates 2010-2012, isolate CID 1919714, Rep 1): > 32 µg/mL
- MIC ([7]; US isolates 2010-2012, isolate CID 1919714, Rep 2): > 32 µg/mL
- MIC ([7]; US isolates 2010-2012, isolate CID 1919942, Rep 1): 2 µg/mL
- MIC ([7]; US isolates 2010-2012, isolate CID 1919942, Rep 2): 2 µg/mL
- MIC ([7]; US isolates 2010-2012, isolate CID 1930670, Rep 1): 4 µg/mL
- MIC ([7]; US isolates 2010-2012, isolate CID 1930670, Rep 2): 2 µg/mL
- MIC ([7]; US isolates 2010-2012, isolate CID 1930676, Rep 1): 4 µg/mL
- MIC ([7]; US isolates 2010-2012, isolate CID 1930676, Rep 2): 2 µg/mL
- MIC ([7]; US isolates 2010-2012, isolate CID 2727597, Rep 1): > 32 µg/mL
- MIC ([7]; US isolates 2010-2012, isolate CID 2727597, Rep 2): 32 µg/mL
- MIC ([7]; US isolates 2010-2012, isolate CID 2727598, Rep 1): 2 µg/mL
- MIC ([7]; US isolates 2010-2012, isolate CID 2727598, Rep 2): 2 µg/mL
- MIC ([7]; US isolates 2010-2012, isolate CID 2727898, Rep 1): 8 µg/mL
- MIC ([7]; US isolates 2010-2012, isolate CID 2727898, Rep 2): 8 µg/mL
- MIC ([7]; US isolates 2010-2012, isolate CID 2728115, Rep 1): 4 µg/mL
- MIC ([7]; US isolates 2010-2012, isolate CID 2728115, Rep 2): 1 µg/mL
- MIC ([7]; US isolates 2010-2012, isolate CID 2728119, Rep 1): 2 µg/mL
- MIC ([7]; US isolates 2010-2012, isolate CID 2728119, Rep 2): 2 µg/mL
- MIC ([7]; US isolates 2010-2012, isolate CID 2728650, Rep 1): 8 µg/mL
- MIC ([7]; US isolates 2010-2012, isolate CID 2728650, Rep 2): 2 µg/mL
- MIC ([7]; US isolates 2010-2012, isolate CID 2728663, Rep 1): 0.5 µg/mL
- MIC ([7]; US isolates 2010-2012, isolate CID 2728663, Rep 2): 0.5 µg/mL
- MIC ([7]; US isolates 2010-2012, isolate CID 2732481, Rep 1): > 32 µg/mL
- MIC ([7]; US isolates 2010-2012, isolate CID 2732481, Rep 2): > 32 µg/mL
- MIC ([7]; US isolates 2010-2012, isolate CID 2732486, Rep 1): 1 µg/mL
- MIC ([7]; US isolates 2010-2012, isolate CID 2732486, Rep 2): 1 µg/mL
- MIC ([7]; US isolates 2010-2012, isolate CID 2762740, Rep 1): > 32 µg/mL
- MIC ([7]; US isolates 2010-2012, isolate CID 2762740, Rep 2): 32 µg/mL
- MIC ([7]; US isolates 2010-2012, isolate CID 2801947, Rep 1): 1 µg/mL
- MIC ([7]; US isolates 2010-2012, isolate CID 2801947, Rep 2): 0.5 µg/mL
- MIC ([7]; US isolates 2010-2012, isolate CID 2801949, Rep 1): 0.25 µg/mL
- MIC ([7]; US isolates 2010-2012, isolate CID 2801949, Rep 2): 0.5 µg/mL
- MIC ([7]; US isolates 2010-2012, isolate CID 2802027, Rep 1): 0.5 µg/mL
- MIC ([7]; US isolates 2010-2012, isolate CID 2802027, Rep 2): 1 µg/mL
- MIC ([7]; US isolates 2010-2012, isolate CID 2802028, Rep 1): 0.5 µg/mL
- MIC ([7]; US isolates 2010-2012, isolate CID 2802028, Rep 2): 1 µg/mL
- MIC ([7]; US isolates 2010-2012, isolate CID 2802029, Rep 1): 0.5 µg/mL
- MIC ([7]; US isolates 2010-2012, isolate CID 2802029, Rep 2): 0.5 µg/mL
- MIC ([7]; US isolates 2010-2012, isolate CID 2802031, Rep 1): 0.5 µg/mL
- MIC ([7]; US isolates 2010-2012, isolate CID 2802031, Rep 2): 0.5 µg/mL
- MIC ([7]; US isolates 2010-2012, isolate CID 2802109, Rep 2): 0.5 µg/mL
- MIC ([7]; US isolates 2010-2012, isolate CID 2802111, Rep 2): 0.25 µg/mL
- MIC ([7]; US isolates 2010-2012, isolate CID 2802187, Rep 1): 1 µg/mL
- MIC ([7]; US isolates 2010-2012, isolate CID 2802187, Rep 2): 1 µg/mL
- BMD MIC [8]: >4 µg/mL
